# Molecular target: T1, human PAH with the R408W mutation (A375 R408W cells) (Homo sapiens, UniProt P00439, R408W)
# T1 construct: expressed in transfected cells
# T1 sequence (P00439 1-452 R408W): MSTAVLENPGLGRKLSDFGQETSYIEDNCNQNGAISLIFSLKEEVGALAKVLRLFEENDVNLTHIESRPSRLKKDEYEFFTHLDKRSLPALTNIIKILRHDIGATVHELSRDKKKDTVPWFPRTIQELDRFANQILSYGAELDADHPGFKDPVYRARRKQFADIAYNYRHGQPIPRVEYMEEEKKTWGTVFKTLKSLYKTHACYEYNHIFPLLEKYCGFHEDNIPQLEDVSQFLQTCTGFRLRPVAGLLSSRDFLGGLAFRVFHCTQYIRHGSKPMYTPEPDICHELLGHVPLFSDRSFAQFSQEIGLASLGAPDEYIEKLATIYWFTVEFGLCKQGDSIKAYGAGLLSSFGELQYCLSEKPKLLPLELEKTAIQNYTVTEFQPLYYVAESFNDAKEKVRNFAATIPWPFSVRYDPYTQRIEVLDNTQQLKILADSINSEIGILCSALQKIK
# Test: Cell Based Phenylalanine Flux Assay
# Conditions: A375 R408W cells; 24 hrs with compound, then 20 μM sepiapterin and 800 μM 13C9,15N-Phenylalanine for 4 hours; 13C-Tyrosine by LC-MS; average where tested multiple times
# In short: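 Phenylalanine-to-tyrosine flux is measured in A375 cells carrying stable human R408W PAH. After 24 h compound exposure, 13C9,15N-Phe (800 μM) with sepiapterin (20 μM) is supplied for 4 h and media 13C-Tyr is read by LC-MS; AC50s are binned.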
row,AC50,SMILES
1,1000 to 5000 nM,"Cc1nc(C(=O)N2CCc3[nH]cnc3[C@H]2c2nc3cccc(C)c3o2)n(C)n1 [Example 907, (S)-(1,3-dimethyl-1H-1,2,4-triazol-5-yl)(4-(7-methylbenzo[d]oxazol-2-yl)-6,7-dihydro-1H-imidazo[4,5-c]pyridin-5(4H)-yl)methanone]"
2,1000 to 5000 nM,"O=C(c1nnc(-c2ccccn2)o1)N1CCc2[nH]cnc2[C@@H]1c1nc2c(F)cccc2o1 [Example 334, (R)-(4-(4-fluorobenzo[d]oxazol-2-yl)-6,7-dihydro-1H-imidazo[4,5-c]pyridin-5(4H)-yl)(5-(pyridin-2-yl)-1,3,4-oxadiazol-2-yl)methanone]"
3,≥ 5000 nM,"O=C(c1ccnn1C1CC1)N1CCc2[nH]cnc2[C@@H]1c1nc2cccc(F)c2o1 [Example 728, (R)-(1-cyclopropyl-1H-pyrazol-5-yl)(4-(7-fluorobenzo[d]oxazol-2-yl)-6,7-dihydro-1H-imidazo[4,5-c]pyridin-5(4H)-yl)methanone]"
4,1000 to 5000 nM,"Cc1nc(-c2cnn(C)c2)oc1C(=O)N1CCc2[nH]cnc2[C@@H]1c1nc2cccc(F)c2o1 [Example 595, (R)-(4-(7-fluorobenzo[d]oxazol-2-yl)-6,7-dihydro-1H-imidazo[4,5-c]pyridin-5(4H)-yl)(4-methyl-2-(1-methyl-1H-pyrazol-4-yl)oxazol-5-yl)methanone]"
5,≤ 500 nM,"Cn1cc(-c2nc(C(F)F)c(C(=O)N3CCc4[nH]cnc4[C@H]3c3nc4ccccc4o3)o2)cn1 [Example 760, (S)-(4-(benzo[d]oxazol-2-yl)-6,7-dihydro-1H-imidazo[4,5-c]pyridin-5(4H)-yl)(4-(difluoromethyl)-2-(1-methyl-1H-pyrazol-4-yl)oxazol-5-yl)methanone]"
6,1000 to 5000 nM,"O=C(c1cnco1)N1CCc2[nH]cnc2[C@@H]1c1nc2c(F)ccc(F)c2o1 [Example 484, (R)-(4-(4,7-difluorobenzo[d]oxazol-2-yl)-6,7-dihydro-1H-imidazo[4,5-c]pyridin-5(4H)-yl)(oxazol-5-yl)methanone]"
7,1000 to 5000 nM,"Cc1cccc2oc([C@H]3c4nc[nH]c4CCN3C(=O)c3ccnn3C(F)F)nc12 [Example 450, (R)-(1-(difluoromethyl)-1H-pyrazol-5-yl)(4-(4-methylbenzo[d]oxazol-2-yl)-6,7-dihydro-1H-imidazo[4,5-c]pyridin-5(4H)-yl)methanone]"
8,≤ 500 nM,"O=C(c1oc(-c2cccnc2)nc1C(F)F)N1CCc2[nH]cnc2[C@H]1c1nc2cc(F)ccc2o1 [Example 420, (S)-(4-(difluoromethyl)-2-(pyridin-3-yl)oxazol-5-yl)(4-(5-fluorobenzo[d]oxazol-2-yl)-6,7-dihydro-1H-imidazo[4,5-c]pyridin-5(4H)-yl)methanone]"
9,500 to 1000 nM,"O=C(c1ccnn1-c1ccccn1)N1CCc2[nH]cnc2[C@H]1c1nc2cccc(F)c2o1 [Example 729, (S)-(4-(7-fluorobenzo[d]oxazol-2-yl)-6,7-dihydro-1H-imidazo[4,5-c]pyridin-5(4H)-yl)(1-(pyridin-2-yl)-1H-pyrazol-5-yl)methanone]"
10,500 to 1000 nM,"O=C(c1ocnc1C(F)F)N1CCc2[nH]cnc2[C@@H]1c1nc2c(C(F)(F)F)cccc2o1 [Example 466, (R)-(4-(difluoromethyl)oxazol-5-yl)(4-(4-(trifluoromethyl)benzo[d]oxazol-2-yl)-6,7-dihydro-1H-imidazo[4,5-c]pyridin-5(4H)-yl)methanone]"

# Further lines, the molecule ahead of its results:
row,SMILES,AC50
1,"Cn1cc(-c2nnc(C(=O)N3CCc4[nH]cnc4[C@@H]3c3nc4cccc(C(F)(F)F)c4o3)o2)cn1 [Example 829, (R)-(5-(1-methyl-1H-pyrazol-4-yl)-1,3,4-oxadiazol-2-yl)(4-(7-(trifluoromethyl)benzo[d]oxazol-2-yl)-6,7-dihydro-1H-imidazo[4,5-c]pyridin-5(4H)-yl)methanone]",1000 to 5000 nM
2,"O=C(c1ocnc1C(F)F)N1CCc2[nH]cnc2[C@@H]1c1nc2cc(Br)cc(F)c2o1 [Example 574, (R)-(4-(5-bromo-7-fluorobenzo[d]oxazol-2-yl)-6,7-dihydro-1H-imidazo[4,5-c]pyridin-5(4H)-yl)(4-(difluoromethyl)oxazol-5-yl)methanone]",≤ 500 nM
3,"O=C(c1oc(N2CCC(F)CC2)nc1C(F)F)N1CCc2[nH]cnc2[C@@H]1c1nc2cc(F)ccc2o1 [Example 402, (R)-(4-(difluoromethyl)-2-(4-fluoropiperidin-1-yl)oxazol-5-yl)(4-(5-fluorobenzo[d]oxazol-2-yl)-6,7-dihydro-1H-imidazo[4,5-c]pyridin-5(4H)-yl)methanone]",1000 to 5000 nM
4,"O=C(c1ocnc1C(F)(F)F)N1CCc2[nH]cnc2[C@H]1c1nc2cccc(F)c2o1 [Example 171, (S)-(4-(7-fluorobenzo[d]oxazol-2-yl)-6,7-dihydro-1H-imidazo[4,5-c]pyridin-5(4H)-yl)(4-(trifluoromethyl)oxazol-5-yl)methanone]",≤ 500 nM
5,"CC(C)(O)c1nc(Cl)c(C(=O)N2CCc3[nH]cnc3[C@H]2c2nc3cc(F)ccc3o2)o1 [Example 129, (S)-(4-chloro-2-(2-hydroxypropan-2-yl)oxazol-5-yl)(4-(5-fluorobenzo[d]oxazol-2-yl)-6,7-dihydro-1H-imidazo[4,5-c]pyridin-5(4H)-yl)methanone]",500 to 1000 nM
6,"O=C(c1oc(N2CCOCC2)nc1C(F)F)N1CCc2[nH]cnc2[C@@H]1c1nc2cccc(F)c2o1 [Example 647, (R)-(4-(difluoromethyl)-2-morpholinooxazol-5-yl)(4-(7-fluorobenzo[d]oxazol-2-yl)-6,7-dihydro-1H-imidazo[4,5-c]pyridin-5(4H)-yl)methanone]",500 to 1000 nM
7,[2H][C@@]1(c2nc3cc(F)ccc3o2)c2nc[nH]c2CCN1C(=O)c1oc(C(C)(C)O)nc1C(F)F [Example 905],≤ 500 nM
8,"O=C(c1ocnc1C(F)F)N1CCc2[nH]cnc2[C@@H]1c1nc2ccc(F)c(F)c2o1 [Example 306, (R)-(4-(6,7-difluorobenzo[d]oxazol-2-yl)-6,7-dihydro-1H-imidazo[4,5-c]pyridin-5(4H)-yl)(4-(difluoromethyl)oxazol-5-yl)methanone]",1000 to 5000 nM
9,"CN1CCN(c2ccc3c(C(=O)N4CCc5[nH]cnc5[C@H]4c4nc5cccc(F)c5o4)cnn3c2)CC1 [Example 363, (S)-(4-(7-fluorobenzo[d]oxazol-2-yl)-6,7-dihydro-1H-imidazo[4,5-c]pyridin-5(4H)-yl)(6-(4-methylpiperazin-1-yl)pyrazolo[1,5-a]pyridin-3-yl)methanone]",≤ 500 nM
10,"CC(C)(O)c1nc(C(F)F)c(C(=O)N2CCc3[nH]cnc3[C@@H]2c2nc3c(F)c(F)ccc3o2)o1 [Example 348, (R)-(4-(4,5-difluorobenzo[d]oxazol-2-yl)-6,7-dihydro-1H-imidazo[4,5-c]pyridin-5(4H)-yl)(4-(difluoromethyl)-2-(2-hydroxypropan-2-yl)oxazol-5-yl)methanone]",1000 to 5000 nM
11,"O=C(c1nnc(-c2ccccn2)o1)N1CCc2[nH]cnc2[C@@H]1c1nc2cc(F)cc(F)c2o1 [Example 579, (R)-(4-(5,7-difluorobenzo[d]oxazol-2-yl)-6,7-dihydro-1H-imidazo[4,5-c]pyridin-5(4H)-yl)(5-(pyridin-2-yl)-1,3,4-oxadiazol-2-yl)methanone]",≤ 500 nM
12,"CC(C)(O)c1nc(Br)c(C(=O)N2CCc3[nH]cnc3[C@@H]2c2nc3cc(F)ccc3o2)o1 [Example 123, (R)-(4-bromo-2-(2-hydroxypropan-2-yl)oxazol-5-yl)(4-(5-fluorobenzo[d]oxazol-2-yl)-6,7-dihydro-1H-imidazo[4,5-c]pyridin-5(4H)-yl)methanone]",1000 to 5000 nM

# Same assay, conditions: A375 cells expressing R408W PAH; 24 hrs with compound, then 20 μM sepiapterin and 800 μM 13C9,15N-Phenylalanine for 4 hours; 13C-Tyrosine by LC-MS; average where tested multiple times
row,AC50,SMILES
1,≥ 5000 nM,Cc1ccc2nc(C3c4nc[nH]c4CCN3C(=O)c3cnco3)oc2c1 (stereo not drawn)
2,≥ 5000 nM,CC(C)(O)c1noc(C(=O)N2CCc3[nH]cnc3C2c2nc3c(F)cccc3o2)n1 (stereo not drawn)

# More lines, now with the values behind:
row,SMILES,AC50
1,Cc1ncoc1C(=O)N1CC2(CC2)c2[nH]cnc2C1c1nc2cc(F)ccc2o1 (stereo not drawn),1000 to 5000 nM
2,O=C(c1nncn1C1CC1)N1CCc2[nH]cnc2C1c1nc2cc(F)ccc2o1 (stereo not drawn),1000 to 5000 nM
3,Cn1cncc1-c1nnc(C(=O)N2CCc3[nH]cnc3C2c2nc3cc(F)ccc3o2)o1 (stereo not drawn),≥ 5000 nM
4,O=C1CN(CCc2ccc3c(C(=O)N4CCc5[nH]cnc5C4c4nc5cc(F)ccc5o4)cnn3c2)CCN1 (stereo not drawn),1000 to 5000 nM
5,CN(C)Cc1nnc(C(=O)N2CCc3[nH]cnc3C2c2nc3cc(F)ccc3o2)o1 (stereo not drawn),1000 to 5000 nM
6,O=C(c1nncn1C1CC1)N1CCc2[nH]cnc2C1c1nc2cccc(F)c2o1 (stereo not drawn),1000 to 5000 nM
7,CC(C)(O)c1ncc(C(=O)N2CCc3[nH]cnc3C2c2nc3ccc(F)cc3o2)o1 (stereo not drawn),1000 to 5000 nM
8,COCCOc1ccc2c(C(=O)N3CCc4[nH]cnc4C3c3nc4cc(F)ccc4o3)cnn2c1 (stereo not drawn),1000 to 5000 nM
9,Cn1cc(-c2ncc(C(=O)N3CCc4[nH]cnc4C3c3nc4cc(F)ccc4o3)o2)cn1 (stereo not drawn),≥ 5000 nM
10,O=C(c1nnc(-c2cnn(S(=O)(=O)C3CC3)c2)o1)N1CCc2[nH]cnc2C1c1nc2cc(F)ccc2o1 (stereo not drawn) [listing 1 of 2 here],≥ 5000 nM
11,O=C(c1nnc(-c2ccccn2)o1)N1CCc2[nH]cnc2C1c1nc2cc(C(F)(F)F)ccc2o1 (stereo not drawn),1000 to 5000 nM
12,O=C(c1nnc(-c2cnn(S(=O)(=O)C3CC3)c2)o1)N1CCc2[nH]cnc2C1c1nc2cc(F)ccc2o1 (stereo not drawn) [listing 2 of 2 here],1000 to 5000 nM

# From patent US20250171437A1 (Agios Pharmaceuticals,Inc., priority 2022, published 2025)
